Test [1] can be described thus: Tested for the cytotoxicity against the repair deficient xrs-6 chinese hamster ovary cell line. The format is functional, cell-based. The settings on record: Cricetulus griseus.
The subject of a further test is HCT-116. The test can be described thus: Tested for the cytotoxicity to inhibit replication assay against the human colon tumor cell line HCT116. The format is functional, cell-based.
Test [2] is described as follows: Differential cytotoxicity was determined from the ratio between BR1(IC50) and xrs-6 (IC50). The format is functional.
Test [3] can be described thus: Concentration required to reduce ethidium bromide fluorescence to 50% of control in presence of calf thymus DNA.
The target in test [4] is DNA topoisomerase II (Homo sapiens) (UniProt P11388+Q02880). The test can be described thus: Effect of dose dependent inhibition of TOPO II-catalyzed kDNA decatenation in vitro. The following applies: Crithidia fasciculata.

pIC50: −log10 of the molar value.

For orientation: pIC50 means the IC50 on a negative log10 scale, so that one unit is a factor of ten. The low end stands for a large IC50, the high end for a small IC50. For the compound `CC(C)=CC(=O)NCCc1c2c3c(ccnc3c3ncsc13)-c1ccccc1N2`, the pIC50 in test [1] was 4.10; in the test on HCT-116 it was 5.08. In addition, the Ratio in test [2] came out at 1. Besides, the Concentration for 50% ethidium displacement (C50) in test [3] is over 100 µM.
In the case of `CC(C)=CC(=O)NCCc1c2c(c3nccc4c3c1Nc1ccccc1-4)NC(=O)CS2`, the pIC50 in test [1] is 5.09; in the test on HCT-116 it was 4.79. Moreover, the Ratio in test [2] was determined as 1. In addition, in test [3], the Concentration for 50% ethidium displacement (C50) is over 100 µM.
In general, IC90 refers to the concentration needed for an effect of 90%. Low readings indicate greater potency, high ones weaker potency. For the compound `CC(=O)NCCC1=CC(=O)c2nccc3c2c1nc1ccccc13`, the pIC50 is 3.87 in test [1] and 5.80 in the test with HCT-116. Further, in test [4], the IC90 was 8.4 µM. Further, the Ratio in test [2] is 1. Besides, in test [3], the Concentration for 50% ethidium displacement (C50) was 54 µM.
Turning to `COc1cc(NS(C)(=O)=O)ccc1Nc1c2ccccc2nc2ccccc12` [AMSACRINE], the negative-log IC50 (pIC50) was 6.62 in test [1] and 5.20 in the test with HCT-116. In test [4], this compound gave an IC90 of 33 µM. Further, the Ratio in test [2] came out at 4.
Consider `CSC1=C(CCNC(C)=O)c2nc3ccccc3c3ccnc(c23)C1=O` [DIPLAMINE], for which the values for the pIC50 (in test [1]; in the test with HCT-116) were 4.15 and over 5.85, respectively. Also, it took 9.2 µM to reach the 90% level in test [4] (IC90). In addition, the Ratio in test [2] came to 1. The Concentration for 50% ethidium displacement (C50) in test [3] was found to be 21 µM.
`c1ccc2c(c1)nc1c3nc4ccccc4c4ccnc(c5nccc2c51)c43` [EILATIN] had a pIC50 in the test on HCT-116 of 5.28. For the same compound, the Concentration for 50% ethidium displacement (C50) in test [3] was over 100 µM.
On to `COc1cc([C@@H]2c3cc4c(cc3[C@@H](O[C@@H]3O[C@@H]5CO[C@@H](C)O[C@H]5[C@H](O)[C@H]3O)[C@H]3COC(=O)[C@H]23)OCO4)cc(OC)c1O` [ETOPOSIDE], for which the pIC50 in test [1] was 6.85; in the test with HCT-116, 5.60. Moreover, in test [4], the IC90 came out at 68 µM. The Ratio in test [2] was determined as 7.
With `CC(=O)NCCc1c2c3c(ccnc3c3ncsc13)-c1ccccc1N2` [KUANONIAMINE D], the values for the pIC50 (in test [1]; in the test with HCT-116) were 4.05 and 5.11, respectively. Further, the Ratio in test [2] turned out to be 2. In addition, the Concentration for 50% ethidium displacement (C50) in test [3] stood at 62 µM.
`O=C1c2c(O)ccc(O)c2C(=O)c2c(NCCNCCO)ccc(NCCNCCO)c21` [MITOXANTRONE] had a pIC50 in test [1] of 9.00. For the same compound, the Ratio in test [2] is on record as 9.
Take `CC(=O)NCCc1c2c(c3nccc4c3c1Nc1ccccc1-4)NC(=O)CS2` [SHERMILAMINE B]: the pIC50 in test [1] was 4.83; in the test with HCT-116, 4.86. Moreover, the Ratio in test [2] amounted to 1. Also, the Concentration for 50% ethidium displacement (C50) in test [3] was over 100 µM.

The record behind these values is ChEMBL document CHEMBL1127394, “Inhibition of topoisomerase II catalytic activity by pyridoacridine alkaloids from a Cystodytes sp. ascidian: a mechanism for the apparent intercalator-induced inhibition of topoisomerase II” (J Med Chem, 1994).
